Laboratory results as given in ChEMBL document CHEMBL2401704, “Inhibition of rhodesain as a novel therapeutic modality for human African trypanosomiasis” (J Med Chem, 2013).
pIC50, pKi: −log10 of the molar value. One block for each compound: values may come before it. Residues, ends and D or L forms follow the SMILES beside them. *: point of attachment. Cbz = O=C(OCc1ccccc1)*; CHN2 = [N-]=[N+]=C*; CH2Cl = ClC*

Experiments:
Trypanosoma brucei [1] = experiment: Antitrypanosomal activity against Trypanosoma brucei; assay type: functional, organism-based
[2] = Inhibition of Trypanosoma brucei rhodesain
[3] = tested on: Trypanosoma brucei brucei; experiment: Antitrypanosomal activity against Trypanosoma brucei brucei; assay type: functional, organism-based
[4] = Inhibition of Plasmodium falciparum Falcipain 2
Trypanosoma brucei [5] = experiment: Inhibition of Trypanosoma brucei rhodesain assessed as second order rate constant
[6] = tested on: Trypanosoma brucei brucei; experiment: Antitrypanosomal activity against blood stream form of Trypanosoma brucei brucei; assay type: functional, organism-based
Cruzipain = Cruzipain (Trypanosoma cruzi, UniProt P25779); experiment: Inhibition of Trypanosoma cruzi cruzain
Cruzipain, sequence (P25779 whole entry): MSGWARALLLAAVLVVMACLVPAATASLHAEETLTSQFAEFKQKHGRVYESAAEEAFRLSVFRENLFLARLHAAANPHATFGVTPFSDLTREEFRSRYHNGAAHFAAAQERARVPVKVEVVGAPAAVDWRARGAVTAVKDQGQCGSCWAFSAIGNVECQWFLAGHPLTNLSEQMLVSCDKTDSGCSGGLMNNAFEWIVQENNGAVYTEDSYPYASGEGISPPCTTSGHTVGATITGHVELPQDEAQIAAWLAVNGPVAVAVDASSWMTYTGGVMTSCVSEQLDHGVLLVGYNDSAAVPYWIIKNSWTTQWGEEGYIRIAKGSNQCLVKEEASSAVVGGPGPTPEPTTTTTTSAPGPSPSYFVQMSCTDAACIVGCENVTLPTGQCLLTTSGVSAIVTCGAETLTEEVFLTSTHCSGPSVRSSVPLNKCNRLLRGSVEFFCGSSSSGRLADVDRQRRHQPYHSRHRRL

[7] = Inhibition of Trypanosoma brucei recombinant rhodesain
L6 = experiment: Cytotoxicity against rat L6 cells; assay type: cell-based
Plasmodium falciparum = experiment: Antiprotozoal activity against Plasmodium falciparum; assay type: functional, organism-based
[8] = tested on: Trypanosoma brucei rhodesiense; experiment: Antitrypanosomal activity against Trypanosoma brucei rhodesiense; assay type: functional, organism-based
Rhodesain = Rhodesain (Trypanosoma brucei rhodesiense, UniProt Q95PM0); experiment: Inhibition of Trypanosoma brucei rhodesiense rhodesain
Rhodesain, sequence (Q95PM0 whole entry): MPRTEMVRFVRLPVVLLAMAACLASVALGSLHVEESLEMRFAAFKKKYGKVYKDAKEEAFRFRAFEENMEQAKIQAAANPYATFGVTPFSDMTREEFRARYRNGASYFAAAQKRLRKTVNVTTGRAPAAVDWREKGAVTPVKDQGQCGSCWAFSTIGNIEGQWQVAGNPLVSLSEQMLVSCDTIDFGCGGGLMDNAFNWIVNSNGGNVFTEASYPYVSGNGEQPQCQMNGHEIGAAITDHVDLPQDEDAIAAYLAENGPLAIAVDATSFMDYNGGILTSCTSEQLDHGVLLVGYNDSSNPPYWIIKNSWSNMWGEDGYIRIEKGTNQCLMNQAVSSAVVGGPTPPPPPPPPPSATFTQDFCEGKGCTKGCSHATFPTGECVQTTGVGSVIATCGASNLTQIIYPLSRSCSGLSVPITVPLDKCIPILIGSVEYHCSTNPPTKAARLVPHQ

Structure (SMILES): C/C(=N\N=C(\N)S)c1cccc(Br)c1
pIC50 (Trypanosoma brucei [1]): < 4.70
pIC50 [2]: 7.30

Structure (SMILES): O=C1C(=O)N(S(=O)(=O)c2ccccc2)c2ccccc21
pIC50 [2]: 4.82

Structure (SMILES): NC(=S)/N=N/c1c(O)[nH]c2ccc(I)cc12
pIC50 [2]: 6.00

Structure (SMILES): CN(C(=O)[C@H](Cc1ccccc1)NC(=O)c1ccc2c(c1)OCCO2)N(C#N)CCCc1ccccc1
pIC50 [7]: 9.62

Structure (SMILES): CCCCCN(C#N)N(C)C(=O)[C@H](Cc1ccccc1)NC(=O)c1ccc2c(c1)OCCO2
pIC50 [7]: 8.87

Structure (SMILES): CCN(CC)/C(S)=N/N=C(\C)c1cccc(Br)c1
pIC50 (Trypanosoma brucei [1]): 5.52
pIC50 [2]: 5.74

Structure (SMILES): NC(=S)/N=N/c1c(O)[nH]c2ccccc12
pIC50 [2]: 5.46

Structure (SMILES): CC(C)C[C@H](NC(=O)c1ccc2c(c1)OCCO2)C(=O)N(C)N(C)C#N
pIC50 [7]: 10.22

Structure (SMILES): CN(C(=O)[C@H](Cc1ccccc1)NC(=O)OCc1ccccc1)N(C#N)CCc1ccccc1
pIC50 [7]: 9.09

Structure (SMILES): C/C(=N\NC(N)=S)c1cccc(/C(C)=N/NC(N)=S)c1
pIC50 (Trypanosoma brucei [1]): < 4.70
pIC50 [2]: 6.48

Structure (SMILES): C/C(=N\N=C(/S)N1CCCCC1)c1cccc(Br)c1
pIC50 (Trypanosoma brucei [1]): 5.52
pIC50 [2]: 5.40

Structure (SMILES): COCCNc1nc(C#N)nc(N(Cc2cccc(C(F)(F)F)c2)C2C3CC4CC(C3)CC2C4)n1 (stereo not given)
pIC50 (L6): 5.09
pIC50 (Plasmodium falciparum): 5.74
pKi [4]: 5.01
pIC50 [8]: 4.71

Structure (SMILES): CC(C)C[C@H](NC(=O)c1ccc2c(c1)OCCO2)C(=O)N(C)N(C#N)CCCc1ccccc1
pIC50 [7]: 9.85

Structure (SMILES): N#Cc1nc(N2CCOCC2)nc(N(c2ccccc2F)C2CCCCC2)n1
pIC50 (L6): 4.94
pIC50 (Plasmodium falciparum): < 5.30
pKi [4]: 7.60
pIC50 [8]: 4.82
pKi (Rhodesain): 7.96

Structure (SMILES): CC(C)[C@H](NC(=O)c1ccc2c(c1)OCCO2)C(=O)N(C)N(C)C#N
pIC50 [7]: 8.27

Structure (SMILES): CN(C(=O)[C@H](Cc1ccccc1)NC(=O)c1ccc2c(c1)OCCO2)N(C#N)Cc1ccccc1
pIC50 [7]: 9.29

Structure (SMILES): CC(C)[C@H](NC(=O)c1ccc2c(c1)OCCO2)C(=O)N(C)N(C#N)Cc1ccccc1
pIC50 [7]: 7.80

Structure (SMILES): CCCc1c(NC(=O)Nc2ccc(OC(F)(F)F)cc2)cnn1-c1ccc(Cl)cc1
pIC50 [2]: > 5.00
pIC50 (Cruzipain): > 5.00

Structure (SMILES): CC(C)[C@H](NC(=O)c1ccc2c(c1)OCCO2)C(=O)N(C)N(C#N)CCCc1ccccc1
pIC50 [7]: 7.27

Structure (SMILES): CN(C#N)N(C)C(=O)[C@H](Cc1ccccc1)NC(=O)OC(C)(C)C
pIC50 [7]: 10.22

Structure (SMILES): CS/C(S)=N/N=C(\C)c1ccccn1
pIC50 (Trypanosoma brucei [1]): 6.52
pIC50 [2]: < 4.70

Structure (SMILES): N#Cc1nc(N2CCOCC2)nc(N(Cc2cccc(C(F)(F)F)c2)C2C3CC4CC(C3)CC2C4)n1 (stereo not given)
pIC50 (L6): 4.63
pIC50 (Plasmodium falciparum): 5.96
pKi [4]: 4.89
pIC50 [8]: 4.56

Structure (SMILES): CC(C)C[C@H](NC(=O)c1ccc2c(c1)OCCO2)C(=O)N(C)N(C#N)CCc1ccccc1
pIC50 [7]: 9.15

Structure (SMILES): CCCCCN(C#N)N(C)C(=O)[C@H](CC(C)C)NC(=O)c1ccc2c(c1)OCCO2
pIC50 [7]: 9.48

Structure (SMILES): O=C1C(=O)N(C(=O)OCc2ccccc2)c2ccccc21
pIC50 [2]: 4.52

Structure (SMILES): CCCC/C(=N\NC(N)=S)c1ccc(Cl)c(Cl)c1
pIC50 [8]: 6.89

Structure (SMILES): CC(C)[C@H](NC(=O)c1ccc2c(c1)OCCO2)C(=O)N(C)N(C#N)CCc1ccccc1
pIC50 [7]: 7.45

Structure (SMILES): CN(C(=O)[C@H](Cc1ccccc1)NC(=O)c1ccc2c(c1)OCCO2)N(C#N)CCc1ccccc1
pIC50 [7]: 8.73

Structure (SMILES): CC(C)C[C@H](NC(=O)c1ccc2c(c1)OCCO2)C(=O)N(C)N(C#N)Cc1ccccc1
pIC50 [7]: 9.48

Structure (SMILES): C/C(=N\N=C(/S)N1CCN(C)CC1)c1cccc(Br)c1
pIC50 (Trypanosoma brucei [1]): 5.70
pIC50 [2]: 5.40

Structure (SMILES): CN(C#N)N(C)C(=O)[C@H](Cc1ccccc1)NC(=O)OCc1ccccc1
pIC50 [7]: 9.40

Structure (SMILES): CN(C#N)N(C)C(=O)[C@H](Cc1ccccc1)NC(=O)c1ccc2c(c1)OCCO2
pIC50 [7]: 9.85

Structure (SMILES): CCCCCN(C#N)N(C)C(=O)[C@@H](NC(=O)c1ccc2c(c1)OCCO2)C(C)C
pIC50 [7]: 7.26

More lines, main results first:

pIC50 [3]: 6.66
pKi [2]: 6.96
Structure (SMILES): CC(C)(C)OC(=O)NCc1cccc(NC(=O)c2ccc(C(=O)NC(=N)NC(=O)OCc3ccccc3)[nH]2)c1
pKi [4]: 6.21

pIC50 [3]: < 4.00
pKi [2]: 7.55
Structure (SMILES): N=C(NC(=O)OCc1ccccc1)NC(=O)c1ccc(C(=O)NCc2ccc(NC(=O)OCc3ccccc3)cc2)[nH]1
pKi [4]: 6.06

K (Trypanosoma brucei [5]): 5.35 ×10⁷ /M/min
Structure (SMILES): O=C(N[C@@H](Cc1ccccc1)C(=O)N[C@H](/C=C/S(=O)(=O)Cc1ccccc1)CCc1ccccc1)OCc1ccccc1

pIC50 [6]: 4.51
Structure (SMILES): C[C@H](NC(=O)[C@H](Cc1ccccc1)NC(=O)OCc1ccccc1)C(=O)CF

pIC50 (Cruzipain): 5.52
Structure (SMILES): O=C(NC(=S)Nc1ncccc1OCc1ccccc1)c1cccn1S(=O)(=O)c1ccccc1
pIC50 [2]: 5.46

pIC50 (Trypanosoma brucei [1]): 5.35
Structure (SMILES): C/C(=N\N=C(\N)S)c1ccc(Nc2ccccc2)cc1
pIC50 [2]: 4.74

K (Trypanosoma brucei [5]): 3.48 ×10⁸ /M/min
Structure (SMILES): O=C(N[C@@H](Cc1ccccc1)C(=O)N[C@H](/C=C/S(=O)(=O)Oc1ccccc1)CCc1ccccc1)OCc1ccccc1

pIC50 (Trypanosoma brucei [1]): 5.52
Structure (SMILES): C/C(=N\N=C(\N)S)c1ccc(Oc2ccccc2)cc1
pIC50 [2]: 5.10

pIC50 [6]: 4.68
Structure (SMILES): C[C@H](NC(=O)[C@H](Cc1ccccc1)NC(=O)OCc1ccccc1)C(=O)CCl

pIC50 [3]: 5.04
pKi [2]: 7.30
Structure (SMILES): N=C(NC(=O)OCc1ccccc1)NC(=O)c1ccc(C(=O)NCc2ccccc2)[nH]1
pKi [4]: 5.11

pIC50 [6]: 5.21
Structure (SMILES): C[C@H](NC(=O)[C@H](Cc1ccccc1)NC(=O)OCc1ccccc1)C(=O)C=[N+]=[N-]

pIC50 [3]: 5.08
pKi [2]: 7.30
Structure (SMILES): N=C(NC(=O)OCc1ccccc1)NC(=O)c1ccc(C(=O)NCc2cccc(NC(=O)OCc3ccccc3)c2)o1
pKi [4]: 5.94

K (Trypanosoma brucei [5]): 2.24 ×10⁶ /M/min
Structure (SMILES): O=C(N[C@@H](Cc1ccccc1)C(=O)N[C@H](/C=C/S(=O)(=O)Nc1ccccc1)CCc1ccccc1)OCc1ccccc1

pIC50 [6]: 5.32
Structure (SMILES): [N-]=[N+]=CC(=O)[C@H](Cc1ccccc1)NC(=O)[C@H](Cc1ccccc1)NC(=O)OCc1ccccc1 (Cbz-Phe-Phe-CHN2)

K (Trypanosoma brucei [5]): 1.61 ×10⁷ /M/min
Structure (SMILES): O=C(N[C@@H](Cc1ccccc1)C(=O)N[C@H](/C=C/S(=O)(=O)c1ccccc1)CCc1ccccc1)OCc1ccccc1

pIC50 (Cruzipain): > 5.00
Structure (SMILES): O=C(NC(=S)Nc1ccc(O)cc1)c1sc2ccccc2c1Cl
pIC50 [2]: > 5.00

pKi [2]: 5.68
Structure (SMILES): N=C(NC(=O)OCc1ccccc1)NC(=O)c1ccc(C(=O)NCc2ccccc2)o1
pKi [4]: 5.57

pIC50 (Trypanosoma brucei [1]): 4.92
Structure (SMILES): C/C(=N\N=C(\N)S)c1cccc(-c2ccccc2)c1
pIC50 [2]: 5.96

pIC50 [3]: 5.63
pKi [2]: 7.00
Structure (SMILES): N=C(NC(=O)OCc1ccccc1)NC(=O)c1ccc(C(=O)NCc2cccc(NC(=O)OCc3ccccc3)c2)[nH]1
pKi [4]: 5.79

pIC50 (Cruzipain): > 5.00
Structure (SMILES): CSc1cccc(NC(=O)Nc2sc3ccccc3c2Cl)c1
pIC50 [2]: > 5.00

pIC50 [6]: 5.44
Structure (SMILES): O=C(N[C@@H](Cc1ccccc1)C(=O)N[C@@H](Cc1ccccc1)C(=O)CCl)OCc1ccccc1 (Cbz-Phe-Phe-CH2Cl)

pIC50 [8]: 7.14
Structure (SMILES): N/C(S)=N/N=C(\C=C\c1ccccc1)c1ccc(Cl)c(Cl)c1

pIC50 [3]: 5.49
pKi [2]: 5.28
Structure (SMILES): CC(C)(C)OC(=O)Nc1cccc(CNC(=O)c2ccc(C(=O)NC(=N)NC(=O)OCc3ccccc3)o2)c1
pKi [4]: 5.41

pIC50 (Trypanosoma brucei [1]): 5.22
Structure (SMILES): C/C(=N\N=C(\N)S)c1cccc(Oc2ccccc2)c1
pIC50 [2]: 6.26

pIC50 (Trypanosoma brucei [1]): 5.00
Structure (SMILES): C/C(=N\N=C(\N)S)c1ccc(-c2ccccc2)cc1
pIC50 [2]: 7.05

K (Trypanosoma brucei [5]): 1.09 ×10⁷ /M/min
Structure (SMILES): O=C(N[C@@H](Cc1ccccc1)C(=O)N[C@H](/C=C/S(=O)(=O)CCc1ccccc1)CCc1ccccc1)OCc1ccccc1

K (Trypanosoma brucei [5]): 15.8 ×10⁶ /M/min
Structure (SMILES): CC(C)C[C@H](NC(=O)N1CCOCC1)C(=O)N[C@H](/C=C/S(=O)(=O)c1ccccc1)CCc1ccccc1

pIC50 (Trypanosoma brucei [1]): 5.10
Structure (SMILES): C/C(=N\N=C(\N)S)c1cccc(Nc2ccccc2)c1
pIC50 [2]: 6.10
